{
  "source": "paper PMC8744071",
  "about": "(ACS infectious diseases, 2021)",
  "key": {"[1]": {"test_system": "Gr-1 stained neutrophils", "test": "Immunofluorescence microscopy of CFA-injected mouse paws", "format": "in vivo", "details": "inflamed mouse paw, 5 h postprobe injection, frozen sections"}, "[2]": {"biological_target": "T1, FPR1 (Homo sapiens, UniProt P21462)", "T1 sequence (P21462 1-350)": "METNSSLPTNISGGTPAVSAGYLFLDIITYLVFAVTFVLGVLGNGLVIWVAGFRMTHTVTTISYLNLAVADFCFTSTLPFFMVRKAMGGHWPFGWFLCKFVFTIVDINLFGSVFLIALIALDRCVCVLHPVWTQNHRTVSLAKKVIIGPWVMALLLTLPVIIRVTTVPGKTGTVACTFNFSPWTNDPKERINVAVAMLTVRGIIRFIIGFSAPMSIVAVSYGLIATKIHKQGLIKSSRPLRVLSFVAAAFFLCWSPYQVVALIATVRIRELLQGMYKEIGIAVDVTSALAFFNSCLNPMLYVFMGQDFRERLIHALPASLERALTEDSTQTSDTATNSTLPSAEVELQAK", "test": "FPR1 receptor internalization in GFP-FPR1 HEK293T cells", "format": "cell-based", "details": "fluorescence imaging, vs untreated controls"}, "[3]": {"test_system": "lung granulomas", "details": "cynomolgus monkey, in vivo"}, "[4]": {"test": "Gamma counting of Percoll-separated blood fractions", "format": "in vivo, cynomolgus macaques (Macaca fascicularis)", "details": "Percoll gradient separation: RBC pellet, buffy coat, plasma"}},
  "note": "Entries after “also recorded” stand apart in the source; their conditions may differ. Where a SMILES comes first, the peptide text is derived from it. Primed or numbered codes have the meaning given here. Where no end group is shown, it is not given here. Side-chain parts run from the residue outwards. [ ]: non-standard residue; d: D form. The star is where a group is joined. CB‑TE1A1P = O=C(CN1CCCN2CCN(CCCN(CP(=O)(O)O)CC2)CC1)*; cinnamoyl = O=C(/C=C/c1ccccc1)*; PEG12′ = not defined here",
  "data": [
    {"molecule": "cinnamoyl-F(D)LF(D)LFK-PEG12-Cy3 [Cy3-FLFLF]", "values": [
      {"measurement": "Cy3-FLFLF labeling of cells in tissue / colocalization with Gr-1", "setting": "[1]", "value": "labeled neutrophils could be detected in tissues by immunofluorescence, although other non-Gr-1-stained cells were detectable; also recorded: variable amounts of colocalization of Cy3-FLFLF and Gr-1"}
    ]},
    {"molecule": "FLFLF-PEG12: pegylated FLFLF tested for FPR1 internalization (cinnamoyl-F[dL]F[dL]FK([PEG12′-CB‑TE1A1P]); also: CB-TE1A1P chelating 64Cu)", "values": [
      {"measurement": "FPR1 internalization / signaling", "setting": "[2]", "value": "did not lead to internalized receptor"}
    ]},
    {"molecule": "2-deoxy-2-(^18F)fluoro-D-glucose [^18F-FDG]", "values": [
      {"measurement": "18F-FDG liver uptake by PET/CT", "setting": "[3]", "value": "minimal"},
      {"measurement": "18F-FDG uptake in lung granulomas by PET/CT", "setting": "[3]", "value": "readily identifiable above lung background"}
    ]},
    {"molecule": "CC(C)C[C@@H](NC(=O)[C@H](Cc1ccccc1)NC(=O)[C@@H](CC(C)C)NC(=O)[C@H](Cc1ccccc1)NC(=O)C=Cc1ccccc1)C(=O)N[C@@H](Cc1ccccc1)C(=O)O", "note": "[FLFLF, N-cinnamoyl-F-(D)L-F-(D)L-F] (HELM PEPTIDE1{[O=C(C=Cc1ccccc1)[*:2]].F.[dL].F.[dL].F}$$$$V2.0)", "values": [
      {"measurement": "Distribution of FLFLF in peripheral blood fractions", "setting": "[4]", "value": "remains in the plasma fraction rather than being bound to blood cells"}
    ]}
  ]
}
